Assay results from ChEMBL document CHEMBL3861995 (Bioorg Med Chem, 2016).

Legend:
[1] = biological target: T1, Protein kinase C (PKC) (Homo sapiens) (UniProt O94806+P41743+P17252+P05129+Q05655+P05771+Q05513+Q02156+P24723+Q15139+Q04759); assay: Inhibition of PKC in human SH-SY5Y cells assessed as inhibition of PMA-stimulated MARCKS phosphorylation at 3 uM preincubated for 1 hr followed by PMA-stimulation for 15 mins by Western blot analysis relative to control; type: cell-based
[2] = biological target: T1, Protein kinase C (PKC) (Homo sapiens); assay: Inhibition of PKC in human SH-SY5Y cells assessed as inhibition of PMA-stimulated MARCKS phosphorylation at 10 uM preincubated for 1 hr followed by PMA-stimulation for 15 mins by Western blot analysis relative to control; type: cell-based
Estrogen receptor = biological target: T2, Estrogen receptor (Homo sapiens, UniProt P03372); assay: biochemical
T2 sequence (P03372 whole entry): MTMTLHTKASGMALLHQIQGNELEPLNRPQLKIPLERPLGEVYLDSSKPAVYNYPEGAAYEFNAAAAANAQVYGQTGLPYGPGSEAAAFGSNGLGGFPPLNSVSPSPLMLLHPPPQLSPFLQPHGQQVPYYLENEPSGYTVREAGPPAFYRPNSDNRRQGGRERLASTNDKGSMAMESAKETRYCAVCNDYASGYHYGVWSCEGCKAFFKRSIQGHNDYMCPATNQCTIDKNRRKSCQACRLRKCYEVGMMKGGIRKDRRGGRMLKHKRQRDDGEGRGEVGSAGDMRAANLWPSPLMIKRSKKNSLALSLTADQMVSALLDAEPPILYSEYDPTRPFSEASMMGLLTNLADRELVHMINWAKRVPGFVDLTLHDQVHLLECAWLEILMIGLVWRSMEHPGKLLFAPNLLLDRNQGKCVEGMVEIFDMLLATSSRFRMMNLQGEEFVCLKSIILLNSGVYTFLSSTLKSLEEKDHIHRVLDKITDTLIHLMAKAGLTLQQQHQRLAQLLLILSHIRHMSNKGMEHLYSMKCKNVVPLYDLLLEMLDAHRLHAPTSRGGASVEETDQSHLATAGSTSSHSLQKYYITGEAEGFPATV
Description: Displacement of Fluormone ES2 Green from human recombinant full length ERalpha expressed in insect cells measured up to 4 hrs by fluorescence polarization assay

Row | Structure (SMILES) | inhibition [1] [%] | inhibition [2] [%] | IC50 (Estrogen receptor) [µM]
1 | N#C/C(=C(/c1ccccc1)c1ccc(OCCN2CCOCC2)cc1)c1ccccc1 | 37 | 70 | 
2 | CN1CCN(CCOc2ccc(C(=C(C#N)c3ccccc3)c3ccc(OCCN4CCN(C)CC4)cc3)cc2)CC1 | 83 | 78 | > 10
3 | CN(C)CCOc1ccc(C(=C(C#N)c2cccs2)c2ccc(OCCN(C)C)cc2)cc1 | 39 | 68 | > 10
4 | N#C/C(=C(\c1ccccc1)c1ccc(OCCN2CCOCC2)cc1)c1ccccc1 | 43 | 57 | 
5 | CCN(CC)CCOc1ccc(C(=C(C#N)c2ccccc2)c2ccc(OCCN(CC)CC)cc2)cc1 | 12 | 68 | > 10
6 | N#CC(=C(c1ccc(OCCN2CCOCC2)cc1)c1ccc(OCCN2CCOCC2)cc1)c1ccccc1 | 62 | 72 | 0.553
7 | CN(C)CCOc1ccc(C(=C(C#N)c2ccccc2)c2ccccc2)cc1 | 22 | 67 | 
